Tests used:
malignant breast tumors = conditions: cited from earlier work
Human thrombin = target: T1, Human thrombin (Homo sapiens, UniProt P00734); assay: Thrombin protease activity inhibition, chromogenic substrate S-2238; format: biochemical; conditions: 3 nM thrombin, 125 μM S-2238, 10 min pre-incubation, RT
T1 construct: purchased Haematologic Technologies Inc
How it was run: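 Thrombin at 3 nM final in 0.05 M Tris pH 7.4, 0.015 M NaCl, 0.01% PEG-8000, at room temperature; compounds as ten-point three-fold dilutions.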

Row | SMILES | reduction in tumor volume (malignant breast tumors; at 4 weeks, treated mice) [%] | weight loss in treated mice (malignant breast tumors; at 4 weeks) | reduction of tumor cells in the blood and liver micrometastases (malignant breast tumors; treated mice) | IC50 (Human thrombin) [µM]
1 | CCCCCCOC(=O)NC(=N)c1ccc(NCc2nc3cc(C(=O)N(CCC(=O)OCC)c4ccccn4)ccc3n2C)cc1 [dabigatran etexilate] | 50 | no weight loss | 50-60% | 
2 | CS(=O)(=O)N1CCCC(c2cc(NCc3ccc(Cl)s3)[nH]n2)CC1 (stereo not shown) [Entry 171, N-[(5-chlorothiophen-2-yl)methyl]-3-(1-methanesulfonylazepan-4-yl)-1H-pyrazol-5-amine] |  |  |  | > 100
3 | Clc1ccc(CNc2cc(C3CCN(Cc4c[nH]cn4)CC3)n[nH]2)s1 [Entry 197, N-[(5-chlorothiophen-2-yl)methyl]-3-[1-(1H-imidazol-4-ylmethyl)piperidin-4-yl]-1H-pyrazol-5-amine] |  |  |  | 1 to 10
4 | Clc1ccc(CNc2cc(C3CCN(Cc4cnn[nH]4)CC3)n[nH]2)s1 [Entry 196, N-[(5-chlorothiophen-2-yl)methyl]-3-[1-(1H-1,2,3-triazol-5-ylmethyl)piperidin-4-yl]-1H-pyrazol-5-amine] |  |  |  | > 100
5 | CC(C)(C)C(=O)N1CCC(c2cc(NCc3ccc(Cl)s3)n(C(=O)c3ccsc3)n2)CC1 [Entry 101, 1-[4-(5-[(5-chlorothiophen-2-yl)methyl]amino-1-(thiophene-3-carbonyl)-1H-pyrazol-3-yl)piperidin-1-yl]-2,2-dimethylpropan-1-one] |  |  |  | < 0.1
